# Laboratory results as given in patent publication US11352349B2, “Type II topoisomerase inhibitors and methods of making and using thereof” (Ohio State Innovation Foundation, priority 2017, dated 2022).
# Where two headings read alike, the source gives them in different places.
# Tests used:
# [1] = test system: S. aureus ATCC 29213; assay: MIC by broth microdilution (CLSI), quality control strain S. aureus ATCC 29213; type: cell-based, Staphylococcus aureus; conditions: multiple values when multiple MIC assays were conducted; for MIC: Staphylococcus aureus, ATCC29213, S. aureus ATCC 29213
# Protocol: Minimum inhibitory concentrations were determined using the quality control strain S. aureus ATCC 29213 (Table 1) by the broth microdilution method according to guidelines of the Clinical and Laboratory Standards Institute (CLSI) (Cockerill, F. R.; et al., 2012, Methods for dilution antimicrobial susceptibility tests for bacteria that grow aerobically; approved standard-ninth edition. MA07-A9. Clinical and Laboratory Standard Institute, Wayne, Pa.). […] Published quality control ranges for gepotidacin and ciprofloxacin were used to validate each assay. MICs for selected compounds were also determined using a USA 300 strain of MRSA (Hidron, et al., Lancet Infect. Dis. 2009, 9:384-392). Vancomycin was used as an additional control.
# [2] = test system: USA 300 strain of MRSA; assay: MIC by broth microdilution, USA 300 strain of MRSA; type: cell-based, Staphylococcus aureus; conditions: multiple values when multiple MIC assays were conducted; for MIC: Staphylococcus aureus, read-out: MIC USA300
# Protocol: Minimum inhibitory concentrations were determined using the quality control strain S. aureus ATCC 29213 (Table 1) by the broth microdilution method according to guidelines of the Clinical and Laboratory Standards Institute (CLSI) (Cockerill, F. R.; et al., 2012, Methods for dilution antimicrobial susceptibility tests for bacteria that grow aerobically; approved standard-ninth edition. MA07-A9. Clinical and Laboratory Standard Institute, Wayne, Pa.). […] MICs for selected compounds were also determined using a USA 300 strain of MRSA (Hidron, et al., Lancet Infect. Dis. 2009, 9:384-392). Vancomycin was used as an additional control.
# [3] = molecular target: T1, Staphylococcus aureus gyrase (Staphylococcus aureus, UniProt P0A0K8+P20831); assay: Staphylococcus aureus gyrase supercoiling assay; type: biochemical
# T1 construct: purchased Inspiralis, Norwich, UK
# T1 sequence (P20831 whole entry): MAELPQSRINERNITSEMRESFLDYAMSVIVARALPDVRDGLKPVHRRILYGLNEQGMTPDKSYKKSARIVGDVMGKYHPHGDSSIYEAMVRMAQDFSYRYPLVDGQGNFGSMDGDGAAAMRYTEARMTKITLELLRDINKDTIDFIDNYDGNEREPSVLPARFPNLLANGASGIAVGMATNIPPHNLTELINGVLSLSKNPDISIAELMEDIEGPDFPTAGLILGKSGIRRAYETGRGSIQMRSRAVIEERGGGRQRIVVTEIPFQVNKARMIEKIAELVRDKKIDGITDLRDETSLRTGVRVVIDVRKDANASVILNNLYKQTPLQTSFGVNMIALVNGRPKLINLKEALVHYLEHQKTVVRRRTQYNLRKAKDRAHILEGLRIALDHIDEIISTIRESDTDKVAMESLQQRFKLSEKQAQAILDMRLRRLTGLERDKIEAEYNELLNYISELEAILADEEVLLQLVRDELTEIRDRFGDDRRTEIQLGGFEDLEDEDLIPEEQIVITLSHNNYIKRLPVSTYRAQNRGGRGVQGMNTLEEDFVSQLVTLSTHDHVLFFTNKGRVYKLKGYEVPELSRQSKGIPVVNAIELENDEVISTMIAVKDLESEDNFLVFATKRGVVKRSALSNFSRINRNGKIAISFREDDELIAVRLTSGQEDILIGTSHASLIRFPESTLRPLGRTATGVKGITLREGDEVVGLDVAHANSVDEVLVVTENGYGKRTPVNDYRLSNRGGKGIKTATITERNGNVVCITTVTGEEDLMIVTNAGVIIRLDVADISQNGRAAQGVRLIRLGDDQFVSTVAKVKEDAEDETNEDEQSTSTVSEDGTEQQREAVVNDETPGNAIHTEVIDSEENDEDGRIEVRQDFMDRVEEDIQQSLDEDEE
# T1 sequence (P0A0K8 whole entry): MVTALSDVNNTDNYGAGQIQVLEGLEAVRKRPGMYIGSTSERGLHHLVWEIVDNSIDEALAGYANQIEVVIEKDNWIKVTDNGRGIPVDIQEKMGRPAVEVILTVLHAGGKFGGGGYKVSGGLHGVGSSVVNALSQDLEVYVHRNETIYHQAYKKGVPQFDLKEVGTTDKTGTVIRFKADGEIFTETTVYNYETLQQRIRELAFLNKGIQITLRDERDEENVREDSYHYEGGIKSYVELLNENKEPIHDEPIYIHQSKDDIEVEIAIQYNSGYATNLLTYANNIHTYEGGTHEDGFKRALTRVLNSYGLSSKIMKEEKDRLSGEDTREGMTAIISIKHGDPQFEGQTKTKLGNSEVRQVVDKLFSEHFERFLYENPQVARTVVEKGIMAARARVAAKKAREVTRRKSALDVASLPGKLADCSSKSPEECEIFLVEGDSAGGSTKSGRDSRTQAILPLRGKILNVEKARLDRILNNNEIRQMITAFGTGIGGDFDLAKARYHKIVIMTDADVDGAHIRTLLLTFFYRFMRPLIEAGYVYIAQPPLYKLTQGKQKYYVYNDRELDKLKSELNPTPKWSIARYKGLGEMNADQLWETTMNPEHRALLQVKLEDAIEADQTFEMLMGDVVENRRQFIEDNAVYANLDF
# Protocol: (§1) A subset of analogs was used to assess the degree of inhibition of DNA gyrase or TopoIV (Inspiralis, Norwich, UK), both to establish the mechanism of action and to evaluate the relative balance of inhibitory activities (Table 1). A subset of compound was also assayed to determine the degree of inhibition of human topoisomerase II (Inspiralis, Norwich, UK)).
# (§2) In all experiments, the activity of the enzymes was determined prior to the testing of the compounds and 1 unit (U) was defined as the amount of enzyme required to just fully supercoil, relax or decatenate the substrate (see explanation of gels). This amount of enzyme was initially used in determination of control inhibitor activity. These experiments were performed in duplicate.
# (§3) For all assays the final DMSO concentration was 1%. 10 mM stocks of the compounds were serially diluted into 10% DMSO at 1 mM, 0.5 mM, 0.25 mM, 0.1 mM, 0.05 mM, 0.01 mM, 0.005 mM, 0.001 mM, 0.0005 mM, 0.0001 mM and 0.00005 mM. 3.0 μl of each dilution was added to a 30 μl assay.
# (§4) Bands were visualised by ethidium staining for 20 minutes and destaining for 20 minutes. Gels were scanned using documentation equipment (GeneGenius, Syngene, Cambridge, UK) and % inhibition levels (where appropriate) were obtained with gel scanning software. (GeneTools, Syngene, Cambridge, UK)
# Staphylococcus aureus gyrase supercoiling
# 1 U of DNA gyrase was incubated with 0.5 μg of relaxed pBR322 DNA in a 30 μl reaction at 37° C. for 30 minutes under the following conditions: 40 mM HEPES. KOH (pH 7.6), 10 mM magnesium acetate, 10 mM DTT, 2 mM ATP, 500 mM potassium glutamate and 0.05 mg/ml BSA.
# Each reaction was stopped by the addition of 30 μl chloroform/iso-amyl alcohol (26:1) and 30 μl Stop Dye (40% sucrose (w/v), 100 mM Tris.HCl (pH 7.5), 10 mM EDTA, 0.5 μg/ml bromophenol blue), before being loaded on a 1.0% TAE gel run at 70V for 2 hours.
# [4] = molecular target: T2, Staphylococcus aureus Topo IV (Staphylococcus aureus, UniProt P0C1S7+P0C1U9); assay: Staphylococcus aureus Topo IV decatenation assay; type: biochemical
# T2 construct: purchased Inspiralis, Norwich, UK
# T2 sequence (P0C1S7 whole entry): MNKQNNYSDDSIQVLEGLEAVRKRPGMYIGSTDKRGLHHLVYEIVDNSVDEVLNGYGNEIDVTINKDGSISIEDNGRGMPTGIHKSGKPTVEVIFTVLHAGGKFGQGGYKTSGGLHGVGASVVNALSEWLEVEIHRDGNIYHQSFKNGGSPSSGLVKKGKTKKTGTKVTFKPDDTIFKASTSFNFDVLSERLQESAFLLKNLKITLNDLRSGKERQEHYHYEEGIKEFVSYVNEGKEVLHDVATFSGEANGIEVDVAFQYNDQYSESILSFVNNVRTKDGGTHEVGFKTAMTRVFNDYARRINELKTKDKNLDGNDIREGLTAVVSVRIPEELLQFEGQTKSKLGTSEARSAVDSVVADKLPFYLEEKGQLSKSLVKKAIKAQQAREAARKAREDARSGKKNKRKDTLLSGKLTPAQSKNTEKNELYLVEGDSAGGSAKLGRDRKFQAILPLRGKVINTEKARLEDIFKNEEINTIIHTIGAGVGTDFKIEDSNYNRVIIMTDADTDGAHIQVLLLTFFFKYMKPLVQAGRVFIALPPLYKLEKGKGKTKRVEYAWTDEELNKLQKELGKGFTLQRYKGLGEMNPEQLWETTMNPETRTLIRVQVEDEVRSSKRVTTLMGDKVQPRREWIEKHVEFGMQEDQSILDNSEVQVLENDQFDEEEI
# T2 sequence (P0C1U9 whole entry): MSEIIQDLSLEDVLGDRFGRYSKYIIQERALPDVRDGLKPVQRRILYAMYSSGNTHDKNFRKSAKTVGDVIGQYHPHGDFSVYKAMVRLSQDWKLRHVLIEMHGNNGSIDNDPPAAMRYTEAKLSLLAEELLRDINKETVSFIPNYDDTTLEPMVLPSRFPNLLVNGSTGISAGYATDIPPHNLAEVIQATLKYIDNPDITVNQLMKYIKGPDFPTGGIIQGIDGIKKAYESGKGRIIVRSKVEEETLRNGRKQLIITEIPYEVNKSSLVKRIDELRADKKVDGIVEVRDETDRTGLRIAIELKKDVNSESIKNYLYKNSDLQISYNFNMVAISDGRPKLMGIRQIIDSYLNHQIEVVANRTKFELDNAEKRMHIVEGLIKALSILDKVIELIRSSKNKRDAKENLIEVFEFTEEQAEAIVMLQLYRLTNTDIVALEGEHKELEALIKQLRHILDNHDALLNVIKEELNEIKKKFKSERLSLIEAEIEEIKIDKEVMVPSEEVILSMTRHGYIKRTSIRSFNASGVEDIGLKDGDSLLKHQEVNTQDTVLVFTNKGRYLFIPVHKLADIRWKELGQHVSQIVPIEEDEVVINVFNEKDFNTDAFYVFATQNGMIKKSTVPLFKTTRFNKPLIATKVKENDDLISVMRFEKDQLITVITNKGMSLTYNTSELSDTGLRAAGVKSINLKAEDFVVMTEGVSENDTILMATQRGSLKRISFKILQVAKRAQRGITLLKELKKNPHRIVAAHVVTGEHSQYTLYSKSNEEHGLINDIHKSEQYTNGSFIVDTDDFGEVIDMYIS
# Protocol: as §1, §2, §3, §4
# Staphylococcus aureus Topo IV Decatenation Assay
# 1 U of Topo IV was incubated with 200 ng kDNA DNA in a 30 μl reaction at 37° C. for 30 minutes under the following conditions: 50 mM Tris.HCl (7.5), 5 mM MgCl2, 5 mM DTT, 1.5 mM ATP, 350 mM potassium glutamate and 0.05 mg/ml BSA.
# Each reaction was stopped by the addition of 30 μl chloroform/iso-amyl alcohol (26:1) and 30 μl Stop Dye, before being loaded on a 1.0% TAE gel run at 70V for 2 hours.
# [5] = molecular target: T3, human topo II (Homo sapiens, UniProt P11388); assay: Topoisomerase II (alpha) decatenation assay; type: biochemical; conditions: activity remaining at 100 μM compound; read-out: hTopoll (% activity remaining at 100 μM)
# T3 construct: purchased Inspiralis, Norwich, UK
# T3 sequence (P11388 whole entry): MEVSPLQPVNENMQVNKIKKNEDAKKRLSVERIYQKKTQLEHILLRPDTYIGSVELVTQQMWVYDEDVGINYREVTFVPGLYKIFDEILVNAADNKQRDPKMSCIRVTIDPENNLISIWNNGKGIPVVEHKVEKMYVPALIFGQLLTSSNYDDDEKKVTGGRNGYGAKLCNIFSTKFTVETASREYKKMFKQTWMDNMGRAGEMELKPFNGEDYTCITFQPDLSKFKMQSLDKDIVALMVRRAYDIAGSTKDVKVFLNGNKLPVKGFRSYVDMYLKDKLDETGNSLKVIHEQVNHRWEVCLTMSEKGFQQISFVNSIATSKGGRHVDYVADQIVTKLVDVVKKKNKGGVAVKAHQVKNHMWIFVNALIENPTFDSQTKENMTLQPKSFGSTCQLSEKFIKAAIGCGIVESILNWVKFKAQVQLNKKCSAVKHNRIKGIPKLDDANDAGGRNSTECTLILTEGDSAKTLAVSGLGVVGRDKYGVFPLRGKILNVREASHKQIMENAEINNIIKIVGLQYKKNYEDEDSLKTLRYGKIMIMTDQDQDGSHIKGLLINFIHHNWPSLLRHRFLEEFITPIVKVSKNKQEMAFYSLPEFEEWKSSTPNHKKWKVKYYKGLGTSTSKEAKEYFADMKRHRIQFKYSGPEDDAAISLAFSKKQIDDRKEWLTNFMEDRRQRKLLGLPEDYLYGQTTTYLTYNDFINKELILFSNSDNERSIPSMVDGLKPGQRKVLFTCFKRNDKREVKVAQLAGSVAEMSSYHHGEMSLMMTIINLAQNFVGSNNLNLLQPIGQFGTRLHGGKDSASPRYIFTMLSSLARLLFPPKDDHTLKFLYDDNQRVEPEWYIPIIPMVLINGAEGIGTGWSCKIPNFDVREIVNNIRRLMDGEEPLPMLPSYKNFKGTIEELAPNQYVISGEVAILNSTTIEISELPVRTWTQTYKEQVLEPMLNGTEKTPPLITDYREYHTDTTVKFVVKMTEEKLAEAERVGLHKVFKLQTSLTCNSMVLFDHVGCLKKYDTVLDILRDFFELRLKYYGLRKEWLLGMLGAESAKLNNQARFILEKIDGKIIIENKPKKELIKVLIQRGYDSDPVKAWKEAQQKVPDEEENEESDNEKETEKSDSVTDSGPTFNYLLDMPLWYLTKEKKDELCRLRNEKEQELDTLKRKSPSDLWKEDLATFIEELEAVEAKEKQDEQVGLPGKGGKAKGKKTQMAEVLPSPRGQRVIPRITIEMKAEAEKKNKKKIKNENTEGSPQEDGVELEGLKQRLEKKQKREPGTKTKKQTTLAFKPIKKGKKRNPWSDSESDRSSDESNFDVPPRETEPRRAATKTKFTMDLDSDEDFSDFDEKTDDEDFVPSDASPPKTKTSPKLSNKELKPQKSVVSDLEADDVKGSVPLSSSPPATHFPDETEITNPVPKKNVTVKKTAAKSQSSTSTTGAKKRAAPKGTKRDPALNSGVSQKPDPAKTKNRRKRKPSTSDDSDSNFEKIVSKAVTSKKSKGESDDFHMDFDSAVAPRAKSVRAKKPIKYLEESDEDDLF
# Protocol: as §1, §2, §3, §4
# Topoisomerase II (Alpha) Decatenation Assay
# Each reaction was stopped by the addition of 30 μl chloroform/iso-amyl alcohol (26:1) and 30 μl Stop Dye, before being loaded on a 1.0% TAE gel run at 90V for 2 hours.
# [6] = S. aureus DNA gyrase supercoiling, read-out: Gyrase IC50
# [7] = S. aureus Topo IV decatenation, read-out: TopolV Decat IC50
SMILES,MIC [1],MIC [2],MIC USA300 [2],IC50 [3],IC50 [4],remaining activity at 100 µM [5],"IC50 [3, 6]","IC50 [4, 7]",MIC 29213 ([1]; S. aureus ATCC 29213)
"COc1ccc2ncc(F)c(C(O)C[C@H]3OC[C@H](NCc4ccc5c(c4)OCCO5)CO3)c2c1 (stereo partly drawn) [AB-0016, 2-(5-(((2,3-dihydrobenzo[b][1,4]dioxin-6-yl)methyl)amino)-trans-1,3-dioxan-2-yl)-1-(3-fluoro-6-methoxyquinolin-4-yl)ethan-1-ol]",0.125 µg/mL,0.25 µg/mL,0.25 µg/mL,90 nM,7980 nM,77.4%,–,–,–
"COc1ccc2ncc(F)c(CC[C@H]3OC[C@H](NCc4cc5c(cn4)OCCO5)CO3)c2n1 [AB-0061, N-((2,3-dihydro-[1,4]dioxino[2,3-c]pyridin-7-yl)methyl)-2-(2-(3-fluoro-6-methoxy-1,5-naphthyridin-4-yl)ethyl)-trans-1,3-dioxan-5-amine]",0.125 µg/mL,0.25 µg/mL,–,–,–,69.6%,420 nM,61000 nM,–
COc1ccc2ncc(F)c(CC[C@H]3OC[C@H](NCc4ccc5c(n4)NC(=O)CO5)CO3)c2n1 [AB-0060],0.125 µg/mL,0.25 µg/mL,–,130 nM,5000 to 10000 nM,83.1%,–,–,–
"COc1ccc2nccc(CC[C@H]3OC[C@H](NCc4cc5c(cn4)OCCC5)CO3)c2c1 [AB-0014, N-((3,4-dihydro-2H-pyrano[2,3-c]pyridin-6-yl)methyl)-2-(2-(6-methoxyquinolin-4-yl)ethyl)-trans-1,3-dioxan-5-amine]",1 µg/mL,2 µg/mL,–,–,–,93.8%,330 nM,25000 to 50000 nM,–
"COc1ccc2nccc(CC[C@H]3OC[C@H](NCc4ccc5c(c4)OCCO5)CO3)c2c1 [AB-0011, N-((2,3-dihydrobenzo[b][1,4]dioxin-6-yl)methyl)-2-(2-(6-methoxyquinolin-4-yl)ethyl)-trans-1,3-dioxan-5-amine]",–,0.5 µg/mL,–,–,13800 nM,84.2%,100 nM,–,–
"COc1ccc2nccc(CC[C@H]3OC[C@H](NCc4ccc(Cl)c(F)c4)CO3)c2c1 [AB-0030, N-(4-chloro-3-fluorobenzyl)-2-(2-(6-methoxyquinolin-4-yl)ethyl)-trans-1,3-dioxan-5-amine]",2 µg/mL,1 µg/mL,–,–,–,97.8%,950 nM,> 100000 nM,–
"COc1ccc2ncc(F)c(CC[C@H]3OC[C@H](NCc4ccc5c(c4)OCCO5)CO3)c2n1 [AB-0015, N-((2,3-dihydrobenzo[b][1,4]dioxin-6-yl)methyl)-2-(2-(3-fluoro-6-methoxy-1,5-naphthyridin-4-yl)ethyl)-trans-1,3-dioxan-5-amine]",≤ 0.25 µg/mL,0.125 µg/mL,–,30 nM,980 nM,55%,–,–,–
"COc1ccc2nccc(CC[C@H]3OC[C@H](NCc4ccc(Cl)c(Cl)c4)CO3)c2c1 [AB-0012, N-(3,4-dichlorobenzyl)-2-(2-(6-methoxyquinolin-4-yl)ethyl)-trans-1,3-dioxan-5-amine]",–,0.5 µg/mL,–,–,–,93.2%,280 nM,> 100000 nM,–
"COc1ccc2ncc(F)c(CC[C@H]3OC[C@H](NCc4ccc(F)c(F)c4)CO3)c2n1 [AB-0062, N-(3,4-difluorobenzyl)-2-(2-(3-fluoro-6-methoxy-1,5-naphthyridin-4-yl)ethyl)-trans-1,3-dioxan-5-amine]",2 µg/mL,4 µg/mL,–,–,–,90.7%,4430 nM,> 100000 nM,–
"COc1ccc2nccc(CC[C@H]3OC[C@H](NCc4ccc(Cl)cc4)CO3)c2c1 [AB-0052, N-(4-chlorobenzyl)-2-(2-(6-methoxyquinolin-4-yl)ethyl)-trans-1,3-dioxan-5-amine]",1 µg/mL,4 µg/mL,–,–,–,97.8%,1160 nM,> 100000 nM,–
"COc1ccc2ncc(F)c(C(O)C[C@H]3OC[C@H](NCc4cc5c(cn4)OCCC5)CO3)c2c1 (stereo partly drawn) [AB-0020, 2-(5-(((3,4-dihydro-2H-pyrano[2,3-c]pyridin-6-yl)methyl)amino)-trans-1,3-dioxan-2-yl)-1-(3-fluoro-6-methoxyquinolin-4-yl)ethan-1-ol]",0.5 µg/mL,1 µg/mL,–,–,–,92.9%,130 nM,15200 nM,–
COc1ccc2ncc(F)c(CC[C@H]3OC[C@H](NCc4cc5c(cn4)OCCC5)CO3)c2n1 [AB-0018],≤ 0.25 µg/mL,0.25 µg/mL,–,–,–,79.8%,160 nM,5330 nM,–
"COc1ccc2nccc(CC[C@H]3OC[C@H](NCc4ccc5c(n4)NC(=O)CO5)CO3)c2c1 [AB-0055, 6-(((2-(2-(6-methoxyquinolin-4-yl)ethyl)-trans-1,3-dioxan-5-yl)amino)methyl)-2H-pyrido[3,2-b][1,4]oxazin-3(4H)-one]",0.5 µg/mL,1 µg/mL,–,–,–,99.1%,780 nM,> 100000 nM,–
"COc1ccc2nccc(CC[C@H]3OC[C@H](NCc4cc5c(cn4)OCCO5)CO3)c2c1 [AB-0013, N-((2,3-dihydro-[1,4]dioxino[2,3-c]pyridin-7-yl)methyl)-2-(2-(6-methoxyquinolin-4-yl)ethyl)-trans-1,3-dioxan-5-amine]",1 µg/mL,2 µg/mL,–,–,–,95.1%,360 nM,50000 nM,2 µg/mL
COc1ccc2nccc(CC[C@H]3OC[C@H](NC/C=C/c4ccccc4)CO3)c2c1 [AB-0051],1 µg/mL,1 µg/mL,–,–,–,93.7%,420 nM,50000 to 100000 nM,–
